{
  "source": "patent US11859203B2",
  "about": "“Cell culture methods” (UCB BIOPHARMA SRL, priority 2017, dated 2024)",
  "type_in_all_cases": "cell-based, Chinese Hamster",
  "key": {"[1]": {"system": "CHO-DG44 cells from cell line 1", "test": "Fed-batch Ambr15 mini bioreactor culture, different replacement levels, cell line 1 (Example 5)", "details": "at optimum, around 70% of replacement", "protocol": "We tested different concentrations of cysteine/cystine derivatives on the improvement on the APG level of a recombinant protein preparation produced in cell culture cultivated in mini bioreactors. CHO-DG44 cells from cell line 1 were inoculated in 12 mL basal media at a seeding density of 0.35×10^6 cells/mL in Ambr15 bioreactors (Sartorius). The cells were cultivated in fed-batch mode during 14 days. The DO was maintained at 40% and the pH was maintained 7.0±0.2 with an automatic CO2 sparging regulation. Viable cell concentration and cell viability were measured daily using a ViCell automated cell counter (Beckman Coulter). Cells were cultured in a fed-batch mode with a daily bolus addition of Feed. The basal media contained 0.04 mmol/L cysteine+0.38 mmol/L cystine. The Feed contained 153.3 mmol/L of cystine. Over the entire 14-day production phase, the total volume of added Feed corresponded to 4.7% (v/v) of the culture start volume.\nDifferent percentages of cysteine present in the Feed was replaced by different cysteine- and cystine analogs. Table 4 provides an overview of different percentages tested and their equivalence in molar ratio relative to cysteine or cystine. E.g. for N-Acetyl-L-cysteine 10% means that 10% molar amount of cysteine equivalent has been replaced by 10% molar amount of N-Acetyl-L-cysteine; for N,N′-Diacetyl-L-cystine, 10% means that 10 molar amount of cystine equivalent has been replaced with 10% molar amount of N,N′-Diacetyl-L-cystine. At the end of the 14 days of culture, the cell culture fluid was harvested by centrifugation. The supernatant was then purified using a protein-A affinity chromatography (GE). The protein-A eluates were used for the charge variants determination using isocapillary focusing (PROTEINSIMPLE iCE3)."}, "[2]": {"system": "CHO-DG44 cells producing a multispecific antibody derivative (cell line 2)", "test": "Fed-batch shake flask culture with cysteine/cystine derivatives, cell line 2 (Example 2)", "details": "50% replacement; day 14; cell line 2, shake flask", "protocol": "The ability of cysteine/cystine derivatives to reduce color and acidic species of a recombinant protein preparation in cell culture was evaluated using another antibody-producing cell line, cell line 2. For this experiment a scale-down model in shake flask was used. CHO-DG44 cells producing a multispecific antibody derivative were inoculated in 100 mL of basal media at a seeding density of 0.35×10^6 cells/mL. The shake flask vessels were 250 mL shake flasks (corning) disposed in an agitated incubator (Infors) protected from light. The cells were cultivated for 14 days at 36.8° C. with 80% of humidity. The cell cultures were agitated at 140 rpm at the beginning of the process. The agitation was increased during the process progressively to reach 250 rpm to maintain a DO % at 40% in the shake flask, as is it done in the 2 L bioreactor process. […]\nThe cysteine present in the Feed was replaced by different cysteine and cystine derivatives with a replacement ratio of 50% equimolar (Table 1). […] Osmolality was daily monitored using an osmometer from Advanced instrument. Off line pH, dissolved O2 and dissolved CO2 were daily monitored using a Nova Biomedical Phox (Nova biomedical). Metabolites concentrations were daily determined using a CedexBioHT system (Roche). Viable cell concentration and cell viability were measured daily using a ViCell automated cell counter (Beckman Coulter). […]"}, "[3]": {"system": "CHO-DG44 cells from cell line 2", "test": "Fed-batch 2 L bioreactor culture with cysteine/cystine derivatives, cell line 2 (Example 3)", "details": "50% replacement; cell line 2, 2 L bioreactor", "protocol": "(§1) The ability of cysteine/cystine derivatives to reduce color and acidic species of a recombinant protein preparation produced in cell culture was evaluated in a bioreactor for two cell lines. This model is more representative of the large-scale production than the shake flask due to the geometry and additional control. CHO-DG44 cells from cell line 1 and 2 were inoculated in 1300 mL of basal media at a seeding density of 0.35×10^6 cells/mL in 2 L stirred bioreactor (Sartorius). The cells were cultivated during 14 days in fed-batch mode. The cell cultures were agitated at 280 rpm and the DO was maintained at 40%. The cell culture was maintained at pH 7.0±0.2 with an automatic CO2 sparging regulation. Cells were cultured in a fed-batch mode with bolus addition of Feed every day of culture. The basal media contained 0.04 mmol/L of cysteine+0.38 mmol/L of cystine. The Feed contained 153.3 mmol/L of cystine. Over the entire 14-day production phase, the total volume of Feed added corresponded to 5.7% (w/w) of the culture start volume for cell line 1 and to 3.1% (w/w) of the culture start volume for cell line 2.\n(§2) The cysteine present in the Feed was replaced by different cysteine- and cystine derivatives at different percentages as presented in Table 2. A condition with only 50% of cysteine was added to test whether the improvements observed were due to the cysteine derivative or to the reduction of cysteine only. Osmolality was daily monitored using an osmometer from Advanced instrument. Off line pH, dissolved O2 and dissolved CO2 were daily monitored using a Nova Biomedical Phox (Nova biomedical). Metabolites concentrations were daily determined using a CedexBioHT system (Roche). Viable cell concentration and cell viability were measured daily using a ViCell automated cell counter (Beckman Coulter). The cell culture fluid was collected daily by centrifuging 1 mL of cell culture fluid for determination of antibody titer by HPLC prot A (waters) or using protein-L Octet measurement (Pall). At the end of the 14 days of culture, the cell culture fluid was harvested by centrifugation. The supernatant was then purified using a protein-A or L affinity chromatography (GE). The protein-A or L eluates were used for the molecular weight determination using UPLC size exclusion (Waters) and for the charge variants determination using isocapillary focusing (PROTEINSIMPLE iCE3). Another part of the protein-A eluates (only from cell line 1) was concentrated to 40 mg/mL using Amicon centricon centrifugal filter devices (Millipore). Color intensity of the concentrated antibody composition was measured in the concentrated protein A eluates using a spectrophotometer by transmission (UltrascanPro) and compared to the CIE (commission internationale de l'éclairage) scale. The numerical results were normalized to the concentration of 40 mg/mL."}, "cell line 1": {"system": "cell line 1", "test": "Reproducibility in 2 L bioreactor, cell line 1, average of data sets 1 and 2 (Example 4)", "details": "50% replacement", "protocol": "as §1, §2\nThe reproducibility of the results was evaluated in bioreactor with cell line 1. The experiments of Example 3 were repeated with an additional control and a bioreactor with 50% S-sulfocysteine 50% Cysteine Feed. The data from the two experiments were analyzed to confirm the effect previously observed with cysteine/cystine derivatives."}, "[4]": {"system": "CHO-DG44 cells from cell line 1", "test": "Fed-batch 2 L bioreactor culture with cysteine/cystine derivatives, cell line 1 (Example 3)", "details": "50% replacement, cell line 1, 2 L bioreactor", "protocol": "as §1, §2"}},
  "data": [
    {"smiles": "CC(=O)N[C@@H](CS)C(=O)O", "note": "[N-acetyl-L-cysteine, N-Acetyl-L-cysteine]", "values": [
      {"measurement": "decrease of acidic species", "setting": "[1]", "value": 12.5, "unit": "%"},
      {"measurement": "decrease on acidic variants level compared to control", "setting": "[2]", "value": 14.5, "unit": "%"},
      {"measurement": "decrease of acidic species level compared to control", "setting": "[3]", "value": 13, "unit": "%"},
      {"measurement": "main species level", "setting": "[3]", "value": "increase of main species"},
      {"measurement": "specific productivity", "setting": "cell line 1; compared to 50% cysteine feed", "value": "did not impact the productivity"},
      {"measurement": "average decrease of acidic species level compared to control", "setting": "cell line 1; data sets 1 and 2 average", "value": 10, "unit": "%"},
      {"measurement": "average decrease of b value level (color intensity) compared to control", "setting": "cell line 1; data sets 1 and 2 average", "value": 13, "unit": "%"},
      {"measurement": "decrease in antibody titer compared to the controls average", "setting": "cell line 1; data sets 1 and 2 average", "value": 10, "unit": "%"},
      {"measurement": "main species level", "setting": "cell line 1; data sets 1 and 2 average", "value": "increase of main species"},
      {"measurement": "cell growth (VCC) compared to control", "setting": "cell line 1; from day 9, 2 L bioreactor, data sets 1 and 2", "value": "higher VCCs than the control conditions"},
      {"measurement": "decrease of acidic species level compared to control", "setting": "[4]", "value": 10, "unit": "%"},
      {"measurement": "main species level", "setting": "[4]", "value": "increase of main species"},
      {"measurement": "decrease of the b value level (color intensity) compared to control", "setting": "[4]; 40 mg/mL", "value": 13, "unit": "%"}
    ]}
  ]
}
